One series deals with OC cell lines. Nature of the series: Cell migration assay (Boyden chamber). Format: cell-based. The note with it: different OC cell lines, P<0.05. As for the experimental part:
To determine whether proliferation inhibition was the dominant factor driving the reduction in OC viability seen with AzP treatment, we used propidium iodide and annexin-FITC stains with flow cytometry to measure the distribution of cell cycle phases after treatment. […] Furthermore, in the Boyden chamber assay for cell migration, SU093 inhibited cell migration by 40-46% (1 μM, P<0.05) in different OC cell lines.
Cell migration assay: 1×10^5 cells were plated in 60 mm cell culture dishes (Corning-Falcon, #353002) and incubated for 24 h. […] Cells were trypsinized and collected in a conical tube for each plate. Pellets of cells were resuspended, and live cells were counted using a hemocytometer and trypan blue staining. 40,000 live cells were then plated in the upper chamber of 8-micron transwell (Corning-Falcon, #353097) with 0.2% FBS media. The lower chamber contained 10% FBS complete media. […] Each transwell was washed, swiped for non-migrated cells and fixed using 75% ethanol. Fixed transwells were stained with 0.5% crystal violet for 1 h. De-stained transwell membranes were cut and mounted on a slide using DPX mounting media. Migrated cells were counted under the microscope at 100× magnification.
FIG. 1A) Lead optimization of SU093 to obtain SU056. […] FIG. 1G) Effects of SU093 and SU056 on apoptotic cell death analyzed by Annexin-FITC staining. […]

A further series has as its target T1, PSMB2 (Homo sapiens, UniProt P49721).
T1 construct: endogenous in cells; host or cells: OVCAR8
As to the kind of experiment: Cellular Thermal Shift Assay (CETSA) in OVCAR8 cells. The note with it: SU056 2.5 μM, 1.5 h, read-out: increase in thermal stability (Tm shift) of PSMB2. Format: binding. The method, then: (§1) The cellular thermal shift assay (CETSA) is based on the principle of protein-ligand interactions causing a shift in protein thermal stability (Savitski et al., 2014). When a protein interacts with ligand, its thermal stability increases, and this principle allows identification of which protein targets that are engaged by small molecules or drug candidates. We used this assay to identify protein targets of SU056. OVCAR8 cells were treated with SU056 (2.5 μM) for 1.5 h, and protein lysates were analyzed for a thermal shift. The heat maps represent the thermal stability of 804 soluble proteins in the presence and absence of SU056 compare with 37° C. (FIG. 3A).
(§2) Cellular Thermal Shift Assay (CETSA): The assay was performed as previously described (Savitski et al., 2014). Briefly, OVCAR8 cells were treated with vehicle (DMSO) or SU056 (2.5 μM) at 70-80% confluency for 1.5 h. Cells were harvested and washed with 1×PBS twice. Cells were pelleted and resuspended in PBS. 10 different PCR tubes with 1×10^6 cells/tube (in 100 μL PBS) were prepared for both the groups. Tubes were exposed to respective temperatures (37, 41, 44, 47, 50, 53, 56, 59, 63, 67° C.) for 3 min using a thermal cycler (Bio-Rad, CA, USA) followed by 2 min incubation at room temperature.

The next series deals with T2, TMSB4X (Homo sapiens, UniProt P62328).
T2 construct: endogenous in cells; host or cells: OVCAR8
Described as above. Particulars: SU056 2.5 μM, 1.5 h, read-out: increase in thermal stability (Tm shift) of TMSB4X. The class given is binding. As for the experimental part: as §1, §2

Series [1] concerns Multidrug resistance 1 (MDR1, ABC pump mediated efflux). Nature of the series: Multidrug Resistance Assay (fluorometric MDR assay). Format: cell-based. Particulars: 2.5 μM for 12 h; six different OC cell lines. The method, then: Out of six targets identified, we selected proteins whose thermal shift is above 5° in the presence of SU056 for further study of protein expression after treatment. […] To study the in vivo effects of SU056 treatment, we analyzed ID8 tumor xenograft samples via immunohistochemistry (IHC). […] To identify the broader effects of SU056 on YB-1 and its downstream protein/activity in different ovarian cancer cell lines, we selected six different cell lines and treated them with SU056 (2.5 μM) for 12 h. Cells were analyzed for YB-1 and CD44 expression and Multidrug resistance 1 (MDR1, ABC pump mediated efflux). […] Finally, we tested the time kinetics and dose-dependent effects of SU056 on YB-1 expression. OVCAR4, OVCAR8, and SKOV3 cells were treated with SU056 (1, 2.5, and 5 μM) for 3, 6, 12, and 24 h and YB-1 expression was measured using YB-1 ELISA. […] 5 μM treatment for 24 h inhibited YB-1 completely (100%) in all three OC cells (FIG. 4E). […]
FIGS. 4A-4E: SU056 inhibits YB-1. […] FIG. 4C) Respective OC cells were treated with 2.5 μM SU056 for 12 h and YB-1 & CD44 expression and multidrug resistance activity was measured as described in the ‘method’ section. The % inhibition was calculated and compared to the control for the respective cell line. […]

For series [2], the system named is OVCAR8 and SKOV-3 OC cell lines. As to the kind of experiment: MTT combination study of SU056 and paclitaxel. Particulars: paclitaxel at 0.1, 0.5, and 1 nM doses. Format: cell-based, human.
Procedure: Cell viability assay: Cell viability was assessed using the standard MTT assay protocol. In brief, 5,000 cells were plated in each well of 96 well plates (Corning-Costar, #3598) and allowed to attach for 24 h. Cells were treated with a respective concentration of compounds for respective time points. A stock solution of each compound was prepared in DMSO. DMSO concentration was kept constant and maintained below 0.1%. After each incubation, 50 μL of 0.5 mg/ml MTT solution prepared in 1×PBS was added to each well followed by 1 h incubation at 37° C. and 5% CO2. MTT solution and media were then removed, and MTT formazan crystals were dissolved in 100 μL of DMSO per well. Absorbance at 570 nm for each well was recorded using a multimode plate reader to quantitate MTT crystallization. Each absorbance value was normalized to controls and converted into percent cell viability.
Combination index calculation: The combination index (CI) for paclitaxel and SU093 or SU056 was calculated using the Chou-Talalay Method (Chou, 2010). CI values were computed via CampuSyn software. CI<1, CI=1, and CI>1 indicate the synergistic, additive and antagonistic effect of the combination.
Combination index values for paclitaxel and SU056. […] Scale bar, 250 μm FIG. 7E) Spheroid formation was quantified after 7 days of incubation. […] Tumor sections were stained with Ki67, and slides were scored for K167 staining. […]

T2 sequence (P62328 whole entry): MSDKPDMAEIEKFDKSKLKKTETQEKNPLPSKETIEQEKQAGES

Consider `O=C1OCC2=C1C(c1cccc(F)c1)c1cc3c(cc1N2CCO)OCO3` (centres unmarked) [SU056, 9-(3-fluorophenyl)-5-(2-hydroxyethyl)-6,9-dihydro-[1,3]dioxolo[4,5-g]furo[3,4-b]quinolin-8(5H)-one], for which the inhibition at 1 µM with OC cell lines is 78 to 87%. The results for the ΔTm at 2.5 µM on PSMB2 and at TMSB4X were 5.36 ± 0.76 °C and 4.43 ± 1.31 °C, respectively. In series [1], the “decrease in MDR expression” value was 41-63%. Besides, the “effect on cytotoxic effects of paclitaxel (MTT)” value in series [2] is given as “significantly potentiates the cytotoxic effects of paclitaxel”.

Usually inhibition stands for the change of the read-out against control, counted positive when it falls. Lower therefore signals a response near the control.

(Values after patent publication US20240016784A1, “Y BOX BINDING PROTEIN 1 INHIBITORS” (Oregon Health & Science University, priority 2020, published 2024).)
